Row | Compound | melting point
1 | CC(C)C(=O)c1cn(Cc2c(F)cccc2F)c2sc(-c3ccc([N+](=O)[O-])cc3)c(CN(C)Cc3ccccc3)c2c1=O | 158 to 162 °C
2 | C=CCOc1cc(C=CC(=O)O)ccc1OC(C)=O | 154 to 155 °C
3 | C=CCc1c(N)ccc2c(=O)cc(C(=O)OCC)oc12 | 142 to 143 °C
4 | CCOC(=O)[C@@H](O)[C@@H]1OC(=O)c2cc(OC)c(OC)cc21 | 144 to 146 °C
5 | COCCN1CC(c2ccccc2)NC1=O (stereo unspecified) | 82 to 83 °C
6 | CCOC(=O)COc1ccc(C(=O)Nc2cc(OC)ccc2Sc2ccccc2-c2nnn[nH]2)cc1 | 195 to 197 °C
7 | CC(=O)n1ccc(-c2c(-c3ccncc3)c(-c3ccc(F)cc3)nn2CCO)cc1=O | 220 to 221 °C
8 | Cc1ccc(NS(=O)(=O)c2ccc(N)cc2)cc1 | 174 to 176 °C
9 | C=Cc1cccc2[nH]c(C(=O)O)cc(=O)c12 | 265 to 266 °C
10 | COn1c(C)nc(N2CCc3ccccc3CC2)c(C#N)c1=O | 144 to 145 °C
11 | COCCOc1cc(OC)c2c(=O)[nH]c(-c3ccnc(C)c3)nc2c1 | 260 to 262 °C
12 | Cc1ccc(C(=O)c2cc(CN(C)CCO)c(O)c(C(C)(C)C)c2)cc1 | 131 to 132 °C
13 | CCCCCOC(=O)Nc1ccc(CN2C(=O)CCc3c(CC4SC(=O)NC4=O)ccc(OC)c32)cc1 (stereo unspecified) | 98 to 102 °C
14 | O=C(c1cccc2cc[nH]c12)N1CCN(c2ccccc2)CC1 | 217 to 219 °C
15 | CCCN(CCC)Cc1cnc(-c2ncn3c2[C@@H]2CCN2C(=O)c2sccc2-3)o1 | 133 to 135 °C
16 | CCOC(=O)c1cccc(-n2c(C)nc3cnccc32)c1 | 120 to 121 °C
17 | OCCC(CCS)c1ccncc1 (stereo unspecified) | 50 to 52 °C
18 | CCCCC1c2sccc2CCN1CCNC(=O)c1ccc(NS(C)(=O)=O)cc1 (stereo unspecified) | 98 to 105 °C
19 | CC(C)(C)C(=O)OCCN1CCN(c2nc(N)ncc2Oc2ccc(Cl)cc2)CC1 | 123 to 125 °C
20 | CCN(CC)CCOC(=C1C2CC3C(C2)C13)c1ccccc1 | 120 to 123 °C
21 | O=C(NC1CC1)OC1c2ccccc2C(=O)N1c1ccc2ccc(Cl)nc2n1 (stereo unspecified) | 220 °C
22 | CCOC(=O)Cc1cc2cc(Br)ccc2s1 | 56 to 57 °C
23 | CC(=O)OC(c1cscc1S(N)(=O)=O)C(C)F (stereo unspecified) | 92 to 94 °C
24 | c1cc2nc3c(n2nc1N1CCCC1)CCCC3 | 161 °C
25 | Nc1ccccc1Oc1ccc2c(c1)C(=O)NC2=O | 212 °C
26 | O=S1(=O)CCN2C=CC=C(c3ccc(Oc4ccc(C(F)(F)F)cc4)cc3)C2=N1 | 253 to 255 °C

Row | Compound | melting point
27 | Oc1ccc(C2(c3ccc(O)cc3)CCCCCC2)cc1 | 208 to 209 °C
28 | CCOC(=O)C(C)(C)c1nc2ccc(Cl)nn2c1Cl | 66 to 67 °C
29 | COc1cccc(CN2CCc3cc(O)ccc3C2)c1OC | 111 to 115 °C
30 | COc1cc(CO)c(OC)c(CCl)c1 | 48 to 50 °C
31 | O=C(CCl)NCC1OCCO1 | 61 to 63 °C
32 | Cc1nc(C(C)(O)c2ccsc2)c(C)o1 (stereo unspecified) | 83 to 84 °C
33 | C[Si](C)(C)CCOCn1ccc(=O)[nH]c1=O | 120 to 122 °C
34 | O=S(=O)(NC1C2CCC(C2)C1CO)c1ccccc1 (stereo unspecified) | 118 to 120 °C
35 | C[C@@H](COC(F)(F)C(F)F)[C@](O)(Cn1cncn1)c1ccc(F)cc1F | 148 °C
36 | COC(=O)C(CC(=S)c1ccc(C)cc1)C(C)=O (stereo unspecified) | 110 to 112 °C
37 | CCOC(=O)N[C@@H]1Cc2ccccc2[C@H]1Nc1ccccc1C(=O)OC (relative stereo) | 108 to 110 °C
38 | FC(F)(F)c1cc(-c2ccccc2)nc(N2CCNCC2)n1 | 130 °C
39 | CCOC(=O)C(N)=Cc1ccc(OCC(O)CNC(C)(C)C)cc1 (stereo unspecified) | 99 to 100 °C
40 | CC(C)(C)OC(=O)NNc1ccc([N+](=O)[O-])cn1 | 132 to 134 °C
41 | COc1ccc(N2CCN(n3ccnc3)CC2)cc1 | 159 °C
42 | N#Cc1nc(-c2ccc(OCCN3CCCCC3)cc2)cs1 | 85 to 86 °C
43 | O=[N+]([O-])c1cccc(-c2cc3ncnc(Nc4ccc5[nH]ccc5c4)c3s2)c1 | 175 to 183 °C
44 | CC(C)C[C@H](NC(=O)Nc1n[nH]c(=S)s1)C(=O)NCc1ccccc1 | 206 to 208 °C
45 | CCOC(=O)C(=O)Nc1c([N+](=O)[O-])sc2ccc(Cl)cc12 | 126 to 128 °C
46 | CCOC(=O)C(Cc1ccccc1)NC(=O)N(N(CCCl)S(C)(=O)=O)S(C)(=O)=O (stereo unspecified) | 106 to 107 °C
47 | CCCCCCCCCCCCCCCCc1nc(N(C)C)nc(C)c1O | 86 to 87 °C
48 | COc1c(OCCn2c([N+](=O)[O-])cnc2C)cnc(CNc2nc(C)nc(C)c2Cl)c1C | 182 to 184 °C
49 | Nc1ccc(C#CCCN2CC=C(c3ccccc3)CC2)nc1 | 136 to 137 °C
50 | c1ccc2c(c1)ncc1nc(C3CCCCC3)[nH]c12 | 205 to 206 °C
51 | Nc1ncc(CN2CCN(c3ccccc3)CC2)c(N)n1 | 263 to 265 °C

From a melting point compilation (Tetko et al.; mined from patent text by program, amines drawn as free bases though some values may be those of a salt)
